Data from patent US6444467B1, “Process for production and subsequent ex vitro sowing and propagation of pre-germinated plant somatic embryos” (Cellfor Inc., priority 1998, dated 2002).

Test system: spruce somatic embryos
Test: ex vitro re-germination of desiccated, pre-germinated spruce somatic embryos after ABA treatment
Type: in vivo
Details: 90 min in darkness
From the text: Somatic embryos of interior spruce (Picea glauca (Moench) Voss x P. engelmannii Parry ex Engelm.) lines I-1026, and 10-1418 were produced and dried with a high-relative-humidity treatment (HRHT) according to the methods of Roberts et al. (1990a; 1990b) and Webster et al. (1990).
Two groups of dried embryos for each of the two genotypes, were germinated on Whatman #1 filter paper on a thin layer of cotton in polycarbonate boxes. The liquid germination medium was modified GMD medium (NH4^+—N/NO3^−—N ratio was 1.4; phosphate concentration was 6 mM; 3% sucrose). After the embryos were sown onto the filter paper, the liquid level in the germination boxes was adjusted to provide a liquid film surrounding the surface of embryos situated at the interface with the solid support. The boxes were sealed with Parafilm and placed in a controlled environment room with the temperature maintained at a constant 23° C.
The first group of somatic embryos was germinated for 7 days after which, the polycarbonate boxes containing the germinants were transferred into refrigerated storage (i.e., temperatures were within a range of 8-12° C.) for 72 hours. The germinants were then removed from the cold treatment and subsequently received the various ABA treatments described below. The germinants which received the cold treatment are hereafter referred to as “stored germinants” .
This group of germinants is referred to hereafter as “fresh germinants”.
The stored and fresh germinants of each genotype were carefully paired into four groups, on wetted paper towel disks in separate 10 cm Petri dishes and received four ABA treatments, said ABA treatments being concentrations of 0, 5, 10, 20 μM, respectively. The ABA treatments were applied in darkness for 90 min.
After the completion of the ABA treatments, the somatic germinants were blot-dried on paper towels. The germinants were then transferred to fresh 5 cm Petri dish. The dishes, two per drying chamber, were placed in drying chambers containing a saturated KCl solution, which provided an atmospheric humidity of 85% RH over the liquid surface in a sealed chamber at 20° C. The somatic germinants were dried for 24 hr in a refrigerated room maintained between 5-8° C. after which, the drying chambers were transferred into a controlled environment room maintained at 20° C. for another 15 h.
The dried germinants were sown into 288-cavity miniplug trays (TLC Polyform Inc,. Plymouth Minn., USA, 55441) filled with a peat-based soilless mix comprised of 60% peat and 40% coarse horticultural vermiculite. Each germinant type of each genotype in each ABA treatment was randomly sown into 5 minitrays in blocks of 20 germinants. After sowing, the germinants were covered with a thin layer of coir (1993 Crystal Co., St. Louis, Mo., USA). The trays were wrapped in black plastic bags for 18 hrs to allow slow rehydration of germinants. Then, the trays were misted with a modified GMD nutrient solution (Webster et al., 1990) containing 3% sucrose until the soilless mix and coir became well wetted. The trays were placed in two misting chambers in a controlled environment germination room under light reduced by a 50% shade cloth for the first week. The shade cloth was removed at the end of the first week and the germinants were exposed to a light intensity of 180 μmol m^−2s^−1 photosynthetic photon flux. The chambers were frequently misted to keep the soilless mix moistened. Modified GMD solution with 3% sucrose was sprayed onto the germinants daily. After 7 days, germinants were fertilized weekly with 20-20-20 fertilizer (Plant Products Ltd., Brampton, ON, Canada) to deliver the equivalent of 100 ppm N.

CC1=CC(=O)CC(C)(C)[C@@]1(O)/C=C/C(C)=C\C(=O)O [ABA, abscisic acid]
Re-germination success (%) (genotype 10-1418, "fresh" germinants, ABA 5 μM): 53.8% | Re-germination success (%) (genotype 10-1418, "fresh" germinants, ABA 10 μM): 16.6% | Re-germination success (%) (genotype 10-1418, "fresh" germinants, ABA 20 μM): 29.8% | Re-germination success (%) (genotype 10-1418, "stored" germinants, ABA 5 μM): 59.8% | Re-germination success (%) (genotype 10-1418, "stored" germinants, ABA 10 μM): 57.5% | Re-germination success (%) (genotype 10-1418, "stored" germinants, ABA 20 μM): 60.0% | Re-germination success (%) (genotype I-1026, "fresh" germinants, ABA 5 μM): 35.0% | Re-germination success (%) (genotype I-1026, "fresh" germinants, ABA 10 μM): 53.3% | Re-germination success (%) (genotype I-1026, "fresh" germinants, ABA 20 μM): 48.2% | Re-germination success (%) (genotype I-1026, "stored" germinants, ABA 5 μM): 71.8% | Re-germination success (%) (genotype I-1026, "stored" germinants, ABA 10 μM): 74.3% | Re-germination success (%) (genotype I-1026, "stored" germinants, ABA 20 μM): 73.5%
